Results taken from patent US20160355530A1, “HEPATITIS C INHIBITORS AND USES THEREOF” (AbbVie Inc., priority 2010, published 2016).
Like-named read-outs stand apart in the source and are kept apart here.

How the values were obtained:
[1] = biological target: T1, HCV NS5B polymerase 1a-H77 (Hepatitis C virus genotype 1a, UniProt P27958); test: biochemical; parameters: species or system HCV genotype 1a; details: enzyme, strain 1a H77; read-out: HCV Polymerase Strain 1a H77 IC50
T1 construct: six-histidine tag; made in house; host or cells: E. coli
Method in brief: (§1)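 E. coli-expressed NS5B (residues 1-570, His-tagged) transcribed a 2.1 kb HCV 1b negative-strand 3′-end RNA template (5 nM) with 20 μM CTP, 20 μM ATP and 0.284 μM [3H]UTP for 3 h at 30° C. Spermine-precipitated RNA was filter-captured and counted by scintillation; IC50 from nonlinear regression.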

[2] = biological target: T2, HCV NS5B polymerase 1a-H77-C316Y (Hepatitis C virus genotype 1a, UniProt P27958, C2736Y); test: biochemical; parameters: species or system HCV genotype 1a
T2 construct: six-histidine tag; made in house; host or cells: E. coli
Method in brief: as §1

[3] = test system: HCV NS5B polymerase 1a-H77-C316Y; test: biochemical; parameters: species or system HCV genotype 1a; details: ratio of enzyme IC50s, 1a H77-C316Y / 1a H77
Method in brief: as §1

[4] = biological target: T3, HCV NS5B polymerase 1b BK strain (Hepatitis C virus genotype 1b, UniProt P26663); test: HCV NS5B polymerase enzymatic inhibition assay, strain 1b BK; assay type: biochemical; details: enzyme, strain 1b BK; read-out: HCV Polymerase Strain 1b BK IC50
T3 construct: six-histidine tag; made in house; host or cells: E. coli
Method in brief: as §1

[5] = biological target: T4, HCV NS5B polymerase 1b Rice (Hepatitis C virus genotype 1b, UniProt Q9WMX2); test: HCV NS5B polymerase enzymatic inhibition assay, strain 1b Rice; assay type: biochemical, HCV genotype 1b; details: enzyme
T4 construct: six-histidine tag; made in house; host or cells: E. coli
Experimental: Purified HCV NS5B polymerase enzymes were used for polymerase inhibition assays. All recombinant HCV polymerases contained the first 570 amino acids of the 591 amino acid native protein sequence and a six-histidine tag at the N-terminus or C-terminus to facilitate purification by affinity chromatography. The DNA nucleotide sequence for the HCV polymerase 1b BK strain was codon optimized for expression in E. coli. A synthetic gene was prepared from a series of overlapping oligonucleotides that were filled in using a DNA polymerase and amplified by PCR. The patient isolate HCV polymerases were cloned by RT-PCR methods using HCV RNA extracted from the serum of infected subjects obtained from ProMedDx and BioCollections (genotypes 2a, 2b, 3a, and 4a). Laboratory strains were cloned from plasmid DNA (1a-H77 or 1a-H77-C316Y) or from existing replicon cells (1b Rice). In all cases the amplified DNA was cloned into a protein expression vector (typically a pET vector from Novagen) and then multiple clones were sequenced to identify one whose NS5B sequence agreed with the population sequence. This sequence-confirmed clone was then transfected into E. coli for protein expression and purification. E. coli cultures were grown to a maximum optical density (OD) of 2-3 and then induced with 0.4 mM isopropyl beta-D-thiogalactopyranoside (IPTG) and grown for 20 hours at 20° C.
Proteins were purified using nickel affinity chromatography, and additional column steps were added including, ion exchange, size exclusion, hydrophobic ion, and poly-U affinity chromatography, as needed, depending on the sample being purified. The template RNA used in the polymerase enzymatic assay was a 2.1 kb construct that corresponds to the 3′-end of an HCV genotype 1b negative strand RNA.
The reaction was initiated by the addition of 20 μM CTP, 20 μM ATP, 0.284 μM (0.5 μCi) of 5,6-[^3H] UTP, 5 nM template RNA and 0.1 U/μL RNase inhibitor (RNasin, Promega), and allowed to proceed for three hours at 30° C. The final reaction volume was 50 μL. The reaction was terminated by the addition of 50 uL of 4 mM spermine in 10 mM Tris-HCl, pH 7.5, 1 mM EDTA. The quenched reaction was allowed to incubate for at least 15 minutes at room temperature, and then the precipitated RNA was captured by filtration through a glass fiber filter (GF/B, Millipore) in a 96 well format. The filter plate was washed five times with 200 μL of 2 mM spermine, 10 mM Tris-HCl, pH 8.0, 1 mM EDTA, and two times with ethanol. After drying thoroughly in air, 30 μL of Microscint-20 scintillation cocktail (Perkin Elmer) was added to each well, and the retained cpm were determined by scintillation counting. IC50 values were determined by nonlinear regression.
% Inhibition=100*[[I]/([I]+[IC50])] equation 1
V=kcat[S]/2(Km+[S])*(sqrt((IC50+I−E)̂2+(4*IC50*E))−(IC50+I−E)) equation 2

[6] = test system: HCV 1a-H77 subgenomic replicon; test: microbe, parasite or virus in culture; assay type: cell-based, HCV genotype 1a; details: Hepatitis C virus, stable replicon
[7] = test system: HCV 1a-H77 C316Y mutant subgenomic replicon; test: Stable replicon cell culture assay (luciferase), 1a-H77-C316Y mutant; assay type: cell-based, HCV genotype 1a; details: for EC50: Hepatitis C virus, read-out: Stable Replicon 1a H77-C316Y 5% FBS EC50; for Stable Replicon Fold Resistance C316Y/1a: ratio of stable replicon EC50s, C316Y / 1a H77
[8] = test system: HCV 1b-Con1 subgenomic replicon; test: Stable replicon cell culture assay (luciferase), 1b-Con1; 5% FBS, optionally 40% human plasma; assay type: cell-based, HCV genotype 1b; details: Hepatitis C virus
[9] = test system: chimeric replicon with genotype 2b NS5B; test: microbe, parasite or virus in culture; assay type: cell-based, HCV genotype 2b; details: Hepatitis C virus, read-out: 2b chimera 5% FBS EC50
[10] = test system: chimeric replicon with genotype 3a NS5B; test: microbe, parasite or virus in culture; assay type: cell-based, HCV genotype 3a; details: Hepatitis C virus, read-out: 3a chimera 5% FBS EC50
[11] = test system: chimeric replicon with genotype 4a NS5B; test: microbe, parasite or virus in culture; assay type: cell-based, HCV genotype 4a; details: Hepatitis C virus, read-out: 4a chimera 5% FBS EC50
[12] = test system: HCV 1a-H77 transient subgenomic replicon in Huh-7 derived cell line; test: microbe, parasite or virus in culture; assay type: cell-based, HCV genotype 1a; details: Hepatitis C virus, Huh-7; transient replicon, 5% FBS; read-out: Transient Replicon 1a H77 5% FBS EC50
Method in brief: (§2)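 Subgenomic replicon RNA (no Neo gene) electroporated into Huh-7-derived cells, plated at 5×10^3 cells/well; a 4 h plate gauged transfection efficiency. Cells exposed to 3-fold compound dilutions (0.5% DMSO) for 4 days at 37° C, then lysed for luciferase readout; EC50 calculated.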

[13] = test system: HCV 1a-H77-C316Y transient subgenomic replicon in Huh-7 derived cell line; test: microbe, parasite or virus in culture; assay type: cell-based, HCV genotype 1a; details: for EC50: Hepatitis C virus, Huh-7, read-out: Transient Replicon 1a H77-C316Y 5% FBS EC50; for Transient Replicon Fold Resistance C316Y/1a: ratio of transient replicon EC50s, C316Y / 1a H77
Method in brief: as §2

[14] = test system: chimeric replicon with 2a-J6CF-derived NS5B; test: microbe, parasite or virus in culture; assay type: cell-based, HCV genotype 2a; details: Hepatitis C virus, read-out: 2a chimera 5% FBS EC50
[15] = 5% FBS, absence of human plasma, read-out: Stable Replicon 1a H77 5% FBS EC50
[16] = strain 1a H77, 5% FBS + 40% human plasma, read-out: 1a H77 5% FBS + 40% Human Plasma EC50
[17] = strain 1a H77, 5% FBS, no human plasma, read-out: 1a H77 5% FBS EC50
[18] = strain 1a H77, 5% FBS, read-out: 1a H77 5% FBS EC50
[19] = strain 1b Con1, 5% FBS + 40% human plasma, read-out: 1b Con1 5% FBS + 40% Human Plasma EC50
[20] = strain 1b Con1, 5% FBS, no human plasma, read-out: 1b Con1 5% FBS EC50
[21] = strain 1b Con1, 5% FBS, read-out: 1b Con1 5% FBS EC50

T1 sequence (P27958 2421-2990): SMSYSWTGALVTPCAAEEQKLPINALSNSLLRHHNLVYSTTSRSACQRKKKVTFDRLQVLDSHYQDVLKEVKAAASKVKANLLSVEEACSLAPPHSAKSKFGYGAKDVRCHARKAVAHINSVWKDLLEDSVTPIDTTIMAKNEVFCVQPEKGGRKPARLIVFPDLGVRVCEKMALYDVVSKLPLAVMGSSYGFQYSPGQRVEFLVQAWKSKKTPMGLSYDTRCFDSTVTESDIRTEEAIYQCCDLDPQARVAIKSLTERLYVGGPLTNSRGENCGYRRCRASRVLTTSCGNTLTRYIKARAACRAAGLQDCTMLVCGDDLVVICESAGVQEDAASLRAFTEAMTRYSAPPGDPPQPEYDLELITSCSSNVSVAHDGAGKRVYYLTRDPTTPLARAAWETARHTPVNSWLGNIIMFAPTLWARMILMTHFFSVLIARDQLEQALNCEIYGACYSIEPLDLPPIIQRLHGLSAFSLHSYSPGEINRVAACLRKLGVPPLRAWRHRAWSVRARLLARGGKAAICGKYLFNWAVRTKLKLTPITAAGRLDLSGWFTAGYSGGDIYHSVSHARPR
T3 sequence (P26663 2420-2989): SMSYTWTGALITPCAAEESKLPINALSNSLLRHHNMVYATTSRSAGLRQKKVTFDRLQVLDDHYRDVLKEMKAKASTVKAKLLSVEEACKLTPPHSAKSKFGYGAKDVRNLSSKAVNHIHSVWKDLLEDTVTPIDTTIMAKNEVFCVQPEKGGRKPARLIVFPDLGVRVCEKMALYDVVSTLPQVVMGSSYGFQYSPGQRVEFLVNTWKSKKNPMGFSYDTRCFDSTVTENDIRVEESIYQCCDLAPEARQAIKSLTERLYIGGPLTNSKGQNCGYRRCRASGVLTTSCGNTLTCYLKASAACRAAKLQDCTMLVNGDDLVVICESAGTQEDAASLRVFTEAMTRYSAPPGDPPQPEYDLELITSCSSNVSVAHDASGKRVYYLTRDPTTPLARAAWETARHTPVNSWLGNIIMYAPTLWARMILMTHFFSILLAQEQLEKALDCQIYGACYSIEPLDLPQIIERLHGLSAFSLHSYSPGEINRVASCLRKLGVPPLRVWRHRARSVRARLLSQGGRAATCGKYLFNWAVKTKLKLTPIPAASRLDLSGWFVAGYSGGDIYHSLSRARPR
T2 sequence (P27958 2421-2990 C2736Y): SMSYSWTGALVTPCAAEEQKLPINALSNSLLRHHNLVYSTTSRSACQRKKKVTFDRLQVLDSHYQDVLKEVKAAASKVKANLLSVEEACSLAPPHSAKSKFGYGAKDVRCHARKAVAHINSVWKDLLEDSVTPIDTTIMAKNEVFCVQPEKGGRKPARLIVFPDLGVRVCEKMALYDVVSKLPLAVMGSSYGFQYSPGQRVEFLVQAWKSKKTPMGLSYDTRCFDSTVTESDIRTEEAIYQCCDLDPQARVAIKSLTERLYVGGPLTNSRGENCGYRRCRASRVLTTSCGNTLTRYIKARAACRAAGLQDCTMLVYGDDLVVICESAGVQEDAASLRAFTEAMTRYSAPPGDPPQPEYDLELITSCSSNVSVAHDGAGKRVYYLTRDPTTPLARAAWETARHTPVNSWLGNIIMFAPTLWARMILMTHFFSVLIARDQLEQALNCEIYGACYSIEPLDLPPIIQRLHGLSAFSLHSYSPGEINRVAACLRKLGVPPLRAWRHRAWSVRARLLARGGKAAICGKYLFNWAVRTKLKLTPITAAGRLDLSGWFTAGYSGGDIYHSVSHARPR

Compound | IC50 [1] [nM] | IC50 [2] [nM] | C316Y/1a Fold Resistance [3] [fold] | IC50 [4] [nM] | IC50 [5] [nM] | EC50 [6, 15] [nM] | EC50 [6, 16] [nM] | EC50 [6, 17] [nM] | EC50 [6, 18] [nM] | EC50 [7] [nM] | Stable Replicon Fold Resistance C316Y/1a [7] [fold] | EC50 [8, 19] [nM] | EC50 [8, 20] [nM] | EC50 [8, 21] [nM] | EC50 [11] [nM] | EC50 [12] [nM] | EC50 [13] [nM] | Transient Replicon Fold Resistance C316Y/1a [13] [fold] | also measured
CC(C)CCN(c1cc2oc(-c3ccc(Nc4ccccc4)cc3)c(-c3ncc[nH]3)c2cc1C1CC1)S(C)(=O)=O [Example 18, N-[2-(4-anilinophenyl)-5-cyclopropyl-3-(1H-imidazol-2-yl)-1-benzofuran-6-yl]-N-(3-methylbutyl)methanesulfonamide] | 25.8 | 101 | 4 | 85.6 | 30.4 | 5.4 | 234 | 5.4 | 5.4 | 3.8 | 0.711 | 602 | 9.5 | 9.5 | 9.4 | 0.7 | 0.3 | 0.4 | EC50 [9]: 13 nM; EC50 [10]: 12.3 nM
COc1ccc(-c2nn3ccc(-c4cc(C(=O)NC5(c6ccccc6)CC5)ccc4C)cc3c2C2=NOCCN2)cc1 [Example 19, 3-[3-(5,6-dihydro-4H-1,2,4-oxadiazin-3-yl)-2-(4-methoxyphenyl)pyrazolo[1,5-a]pyridin-5-yl]-4-methyl-N-(1-phenylcyclopropyl)benzamide] | 4 | 457 | 115 | 150 | 7.2 | 33.2 | 444 | 33.2 | 33.2 | 1320 | 41.0 | 86.8 | 6.7 | 6.7 | 20.2 |  |  |  | EC50 [14]: 140 nM
C=C(c1ccccc1)c1ccc(-c2oc3cc(N(CCC(C)C)S(C)(=O)=O)c(C4CC4)cc3c2-c2ncc[nH]2)cc1 [Example 167, N-{5-cyclopropyl-3-(1H-imidazol-2-yl)-2-[4-(1-phenylvinyl)phenyl]-1-benzofuran-6-yl}-N-(3-methylbutyl)methanesulfonamide] | 49.2 | 7900 | 161 | 160 | 61.6 |  |  |  |  |  |  |  |  |  |  | 8.1 | 6.11 | 1 | 
COc1ccc(-c2nn3ccc(-c4cc(C(=O)NC5(c6ccccc6)CC5)ccc4C)cc3c2-c2ncc[nH]2)cc1 [Example 191, 3-[3-(1H-imidazol-2-yl)-2-(4-methoxyphenyl)pyrazolo[1,5-a]pyridin-5-yl]-4-methyl-N-(1-phenylcyclopropyl)benzamide] | 12 |  |  |  | 8.4 |  |  |  |  |  |  |  |  |  | 17.6 |  |  |  | 
